Laboratory results: patent US10975068B2, “6-aminopyridin-3-yl thiazoles as modulators of RORγT” (Janssen Pharmaceutica NV, priority 2016, dated 2021)
Like-named read-outs stand apart in the source and are kept apart here.

What was measured:
full-length human RORγt = full-length human RORγt (Homo sapiens (Human), UniProt P51449); experiment: RORγt (full-length human) reporter assay, Conditions B or C; assay type: cell-based; conditions: for inhibition at 1 µM: at 1 μM compound concentration; for inhibition at 1 µM / inhibition at 3 µM: read-out: RORγt (FL) Reporter Assay B or C, % inhibition; for inhibition at 3 µM: at 3 μM compound concentration
Sequence of full-length human RORγt (P51449 other isoform, or with tags, fused parts or gaps): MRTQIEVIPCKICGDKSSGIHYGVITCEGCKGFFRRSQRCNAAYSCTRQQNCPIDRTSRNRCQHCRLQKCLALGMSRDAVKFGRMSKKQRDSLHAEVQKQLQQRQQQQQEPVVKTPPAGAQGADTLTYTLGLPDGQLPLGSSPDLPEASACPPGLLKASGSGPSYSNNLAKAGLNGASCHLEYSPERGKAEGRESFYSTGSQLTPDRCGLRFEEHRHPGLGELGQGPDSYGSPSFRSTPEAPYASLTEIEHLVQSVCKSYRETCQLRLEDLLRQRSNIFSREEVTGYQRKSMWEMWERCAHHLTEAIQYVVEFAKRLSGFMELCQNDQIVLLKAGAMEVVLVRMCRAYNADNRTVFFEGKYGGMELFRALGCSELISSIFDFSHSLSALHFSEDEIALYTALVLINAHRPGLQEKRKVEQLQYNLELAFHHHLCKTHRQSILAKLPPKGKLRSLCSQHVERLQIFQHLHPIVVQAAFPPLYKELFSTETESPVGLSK
In short: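 HEK293T cells transiently co-transfected with GAL4-DBD–full-length human RORγt (nt 142-1635, NM_001001523.1) plus GAL4-firefly and CMV-Renilla luciferase reporters; compounds added 4-6 h post-transfection for 16-20 h in 1.3% FBS, 0.1% DMSO. Firefly signal normalized to DMSO and saturating reference compound, then to Renilla; IC50 from concentration plots.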

[1] = target: human RORγt ligand binding domain (RORγt LBD) (Homo sapiens (Human), UniProt P51449); experiment: RORγt ThermoFluor® assay (thermal shift binding); conditions: read-out: ThermoFluor® Assay, Kd
Sequence of human RORγt ligand binding domain (RORγt LBD) (P51449 other isoform, or with tags, fused parts or gaps): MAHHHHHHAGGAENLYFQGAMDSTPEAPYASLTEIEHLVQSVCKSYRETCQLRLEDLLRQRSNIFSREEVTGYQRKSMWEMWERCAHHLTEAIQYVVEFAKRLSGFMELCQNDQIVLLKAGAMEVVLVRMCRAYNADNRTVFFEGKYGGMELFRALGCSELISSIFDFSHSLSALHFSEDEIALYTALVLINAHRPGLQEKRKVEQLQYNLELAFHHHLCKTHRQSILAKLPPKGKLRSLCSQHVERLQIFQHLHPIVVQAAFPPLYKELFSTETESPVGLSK
In short: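 His-tagged human RORγt LBD (0.065 mg/mL) with 60 μM 1,8-ANS in 100 mM Hepes pH 7.0, 10 mM NaCl, 2.5 mM GSH, 0.002% Tween-20 was heated at 1 °C/min.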

[2] = read-out: RORγt (FL) Reporter Assay B or C, IC50
[3] = RORγt (FL) Reporter Assay B or C, IC50

Compound | inhibition at 1 µM (full-length human RORγt) | IC50 (full-length human RORγt; [2]) | Kd [1] | IC50 (full-length human RORγt; [3]) | inhibition at 3 µM (full-length human RORγt)
O=C(NC1CCS(=O)(=O)CC1)c1nc(C(=O)N2C3CCC2CC3)c(-c2cnc(N[C@@H](C3CC3)C(F)(F)F)cc2C(F)F)s1 [Example 436, 4-((1s,4s)-7-Azabicyclo[2.2.1]heptane-7-carbonyl)-5-[6-[[(1S)-1-cyclopropyl-2,2,2-trifluoro-ethyl]amino]-4-(difluoromethyl)-3-pyridyl]-N-(1,1-dioxothian-4-yl)thiazole-2-carboxamide] | 117% | 48 nM | 1 nM | – | –
O=C(N[C@@H]1CC[C@@H](O)C1)c1nc(C(=O)N2C3CCC2CC3)c(-c2cnc(N[C@@H](C3CC3)C(F)(F)F)cc2C(F)F)s1 [Example 437, 4-((1s,4s)-7-Azabicyclo[2.2.1]heptane-7-carbonyl)-5-[6-[[(1S)-1-cyclopropyl-2,2,2-trifluoro-ethyl]amino]-4-(difluoromethyl)-3-pyridyl]-N-[(1R,3R)-3-hydroxycyclopentyl]thiazole-2-carboxamide] | – | – | 0.44 nM | 16 nM | 90%
C[C@H](Nc1cc(C(F)F)c(-c2sc(C(=O)N[C@@H]3CC[C@@H](O)C3)nc2C(=O)N2C3CCC2CC3)cn1)C(F)(F)F [Example 438, 4-((1s,4s)-7-Azabicyclo[2.2.1]heptane-7-carbonyl)-5-[4-(difluoromethyl)-6-[[(1S)-2,2,2-trifluoro-1-methyl-ethyl]amino]-3-pyridyl]-N-[(1R,3R)-3-hydroxycyclopentyl]thiazole-2-carboxamide] | 99% | 83 nM | 4 nM | – | –
O=C(N[C@@H]1CCC[C@H]1O)c1nc(C(=O)N2C3CCC2CC3)c(-c2cnc(N[C@@H](C3CC3)C(F)(F)F)cc2C(F)F)s1 [Example 439, 4-((1s,4s)-7-Azabicyclo[2.2.1]heptane-7-carbonyl)-5-[6-[[(1S)-1-cyclopropyl-2,2,2-trifluoro-ethyl]amino]-4-(difluoromethyl)-3-pyridyl]-N-[(1R,2R)-2-hydroxycyclopentyl]thiazole-2-carboxamide] | – | 10 nM | 0.27 nM | – | 102%
CC(C)(C)Nc1cc(C(F)F)c(-c2sc(C(=O)N[C@H]3CCC[C@@H]3O)nc2C(=O)N2C3CCC2CC3)cn1 [Example 440, 4-((1s,4s)-7-Azabicyclo[2.2.1]heptane-7-carbonyl)-5-[6-(tert-butylamino)-4-(difluoromethyl)-3-pyridyl]-N-[(1S,2S)-2-hydroxycyclopentyl]thiazole-2-carboxamide] | – | – | 0.72 nM | 31 nM | 104%
O=C(N[C@H]1CC[C@H](O)C1)c1nc(C(=O)N2C3CCC2CC3)c(-c2cnc(N[C@@H](C3CC3)C(F)(F)F)cc2C(F)F)s1 [Example 441, 4-((1s,4s)-7-Azabicyclo[2.2.1]heptane-7-carbonyl)-5-[6-[[(1S)-1-cyclopropyl-2,2,2-trifluoro-ethyl]amino]-4-(difluoromethyl)-3-pyridyl]-N-[(1S,3S)-3-hydroxycyclopentyl]thiazole-2-carboxamide] | – | – | 0.47 nM | 36 nM | 106%
O=C(N[C@@H]1COC[C@H]1O)c1nc(C(=O)N2C3CCC2CC3)c(-c2cnc(N[C@@H](C3CC3)C(F)(F)F)cc2C(F)F)s1 [Example 442, 4-((1s,4s)-7-Azabicyclo[2.2.1]heptane-7-carbonyl)-5-[6-[[(1S)-1-cyclopropyl-2,2,2-trifluoro-ethyl]amino]-4-(difluoromethyl)-3-pyridyl]-N-[(3R,4S)-4-hydroxytetrahydrofuran-3-yl]thiazole-2-carboxamide] | 96% | – | 1.6 nM | 320 nM | –
C[C@H](Nc1cc(C(F)F)c(-c2sc(C(=O)N[C@H](C)C(C)(C)O)nc2C(=O)N2C3CCC2CC3)cn1)C(F)(F)F [Example 445, 4-((1s,4s)-7-Azabicyclo[2.2.1]heptane-7-carbonyl)-5-[4-(difluoromethyl)-6-[[(1S)-2,2,2-trifluoro-1-methyl-ethyl]amino]-3-pyridyl]-N-[(1R)-2-hydroxy-1,2-dimethyl-propyl]thiazole-2-carboxamide] | – | 96 nM | 12 nM | – | 73%
C[C@H](NC(=O)c1nc(C(=O)N2C3CCC2CC3)c(-c2cnc(N[C@@H](C)C(F)(F)F)cc2C(F)F)s1)C(C)(C)O [Example 446, 4-((1s,4s)-7-Azabicyclo[2.2.1]heptane-7-carbonyl)-5-[4-(difluoromethyl)-6-[[(1S)-2,2,2-trifluoro-1-methyl-ethyl]amino]-3-pyridyl]-N-[(1S)-2-hydroxy-1,2-dimethyl-propyl]thiazole-2-carboxamide] | – | 180 nM | 13 nM | – | 108%
C[C@H](CO)NC(=O)c1nc(C(=O)N2CC(F)(F)C[C@@H]2C)c(-c2cnc(N[C@@H](C)C(F)(F)F)cc2C(F)F)s1 [Example 447, 4-[(2S)-4,4-Difluoro-2-methyl-pyrrolidine-1-carbonyl]-5-[4-(difluoromethyl)-6-[[(1S)-2,2,2-trifluoro-1-methyl-ethyl]amino]-3-pyridyl]-N-[(1R)-2-hydroxy-1-methyl-ethyl]thiazole-2-carboxamide] | – | 75 nM | 2.1 nM | – | 89%
C[C@H](Nc1cc(C(F)F)c(-c2sc(C(=O)NC3CCOCC3)nc2C(=O)N2CC(F)(F)C[C@@H]2C)cn1)C(F)(F)F [Example 448, 4-[(2S)-4,4-Difluoro-2-methyl-pyrrolidine-1-carbonyl]-5-[4-(difluoromethyl)-6-[[(1S)-2,2,2-trifluoro-1-methyl-ethyl]amino]-3-pyridyl]-N-tetrahydropyran-4-yl-thiazole-2-carboxamide] | – | 28 nM | 0.8 nM | – | 99%
CC[C@H](Nc1cc(C(F)F)c(-c2sc(C(=O)N[C@H]3C[C@H](O)C3)nc2C(=O)N2CC(F)(F)C[C@@H]2C)cn1)C(F)(F)F [Example 449, 4-((S)-4,4-Difluoro-2-methylpyrrolidine-1-carbonyl)-5-(4-(difluoromethyl)-6-(((S)-1,1,1-trifluorobutan-2-yl)amino)pyridin-3-yl)-N-((1R,3S)-3-hydroxycyclobutyl)thiazole-2-carboxamide] | – | 21 nM | 2.1 nM | – | 108%
C[C@H](Nc1cc(C(F)F)c(-c2sc(C(=O)N3CC(S(C)(=O)=O)C3)nc2C(=O)N2CCC[C@@H]2C)cn1)C(F)(F)F [Example 450] | – | 230 nM | 50 nM | – | 106%
O=C(N[C@H]1CCC[C@@H]1O)c1nc(C(=O)N2C3CCC2CC3)c(-c2cnc(N[C@@H](C3CC3)C(F)(F)F)cc2C(F)F)s1 [Example 451, 4-(7-Azabicyclo[2.2.1]heptane-7-carbonyl)-5-[6-[[(1S)-1-cyclopropyl-2,2,2-trifluoro-ethyl]amino]-4-(difluoromethyl)-3-pyridyl]-N-[(1S,2S)-2-hydroxycyclopentyl]thiazole-2-carboxamide] | – | 290 nM | 0.29 nM | – | 99%
